Source: ChEMBL document CHEMBL4428125, “8-Substituted 1,3-dimethyltetrahydropyrazino[2,1-f]purinediones: Water-soluble adenosine receptor antagonists and monoamine oxidase B inhibitors” (Bioorg Med Chem, 2016)
Calls of active or inactive are those of the source. The calls are words filed in the database; no cut-off is given here.

What was measured:
[1] = target: T1, Adenosine receptor A1 (Rattus norvegicus) (UniProt P25099); test: Displacement of [3H]CCPA from A1 receptor in rat brain cortex membranes at 1.5 uM by liquid scintillation counting method; format: cell membranes
T1 sequence (whole entry): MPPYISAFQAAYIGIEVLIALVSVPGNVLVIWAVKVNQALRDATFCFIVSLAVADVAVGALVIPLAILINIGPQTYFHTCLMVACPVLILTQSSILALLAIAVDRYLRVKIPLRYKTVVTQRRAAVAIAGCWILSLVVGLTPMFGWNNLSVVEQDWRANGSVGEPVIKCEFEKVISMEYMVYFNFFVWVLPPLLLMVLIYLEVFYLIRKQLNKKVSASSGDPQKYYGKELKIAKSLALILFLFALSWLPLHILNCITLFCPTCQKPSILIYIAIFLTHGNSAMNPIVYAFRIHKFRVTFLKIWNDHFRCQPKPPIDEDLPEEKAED

[2] = target: T2, Adenosine receptor A2b (Homo sapiens) (UniProt P29275); test: Displacement of [3H]PSB-603 from human A2B receptor expressed in CHO cell membrane at 1 uM relative to control; format: cell membranes
T2 sequence (whole entry): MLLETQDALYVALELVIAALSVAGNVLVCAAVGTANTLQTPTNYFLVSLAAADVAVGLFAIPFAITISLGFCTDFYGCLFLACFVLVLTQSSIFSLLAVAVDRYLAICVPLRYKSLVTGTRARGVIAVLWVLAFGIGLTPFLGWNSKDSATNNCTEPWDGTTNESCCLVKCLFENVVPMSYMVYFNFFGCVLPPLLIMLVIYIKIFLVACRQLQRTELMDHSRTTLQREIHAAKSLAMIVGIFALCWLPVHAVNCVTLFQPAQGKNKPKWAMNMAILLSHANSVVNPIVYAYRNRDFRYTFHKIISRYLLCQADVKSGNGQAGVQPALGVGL

Adenosine receptor A3 = target: T3, Adenosine receptor A3 (Homo sapiens, UniProt P0DMS8); test: Displacement of [3H]PSB-11 from human A3 receptor expressed in CHO cell membrane by liquid scintillation counting method relative to control; format: cell membranes
T3 sequence (P0DMS8 whole entry): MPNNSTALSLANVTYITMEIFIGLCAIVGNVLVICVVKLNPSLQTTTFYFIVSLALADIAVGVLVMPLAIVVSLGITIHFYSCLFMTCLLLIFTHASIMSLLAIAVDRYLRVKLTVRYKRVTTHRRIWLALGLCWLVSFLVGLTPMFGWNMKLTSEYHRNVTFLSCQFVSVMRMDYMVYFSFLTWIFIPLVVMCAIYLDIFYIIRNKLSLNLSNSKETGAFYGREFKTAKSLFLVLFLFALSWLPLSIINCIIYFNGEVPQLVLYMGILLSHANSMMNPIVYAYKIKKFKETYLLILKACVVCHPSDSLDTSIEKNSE

[3] = target: T4, Adenosine receptor A3 (Homo sapiens) (UniProt P0DMS8); test: Displacement of [3H]PSB-11 from human A3 receptor expressed in CHO cell membrane at 10 uM by liquid scintillation counting method relative to control relative to control; format: cell membranes
T4 sequence (whole entry): T3 sequence (P0DMS8 whole entry)

[4] = target: T5, Adenosine receptor A1 (Homo sapiens) (UniProt P30542); test: Displacement of [3H]CCPA from human A1 receptor expressed in CHO cell membrane at 10 uM by liquid scintillation counting method; format: cell membranes
T5 sequence (whole entry): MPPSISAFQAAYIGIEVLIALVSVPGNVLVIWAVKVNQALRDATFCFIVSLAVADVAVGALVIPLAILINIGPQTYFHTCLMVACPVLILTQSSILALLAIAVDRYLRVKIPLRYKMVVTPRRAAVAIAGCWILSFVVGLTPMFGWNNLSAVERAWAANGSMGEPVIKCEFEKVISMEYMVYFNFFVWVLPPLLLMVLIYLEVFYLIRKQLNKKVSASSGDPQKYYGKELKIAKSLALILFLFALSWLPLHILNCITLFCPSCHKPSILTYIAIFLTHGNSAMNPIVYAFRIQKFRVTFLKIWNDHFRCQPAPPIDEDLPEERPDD

Adenosine receptor A1 = target: T6, Adenosine receptor A1 (Rattus norvegicus, UniProt P25099); test: Displacement of [3H]CCPA from A1 receptor in rat brain cortex membranes by liquid scintillation counting method; format: cell membranes
T6 sequence (P25099 whole entry): T1 sequence (whole entry)

[5] = target: T5, Adenosine receptor A1 (Homo sapiens); test: Agonist activity at recombinant human A1 receptor expressed in CHO cells assessed as inhibition of forskolin-induced cAMP accumulation at 10 uM preincubated for 20 mins prior to forskolin-stimulation measure after 5 mins by liquid scintillation counting method; format: functional, cell-based
[6] = target: T5, Adenosine receptor A1 (Homo sapiens); test: Agonist activity at recombinant human A1 receptor expressed in CHO cells assessed as inhibition of forskolin-induced cAMP accumulation at 1 uM preincubated for 20 mins prior to forskolin-stimulation measure after 5 mins by liquid scintillation counting method; format: functional, cell-based
Adenosine receptor A2a [7] = target: T7, Adenosine receptor A2a (Homo sapiens, UniProt P29274); test: Agonist activity at recombinant human A2A receptor expressed in CHO cells assessed as increase in forskolin-induced cAMP level at 10 uM preincubated for 20 mins prior to forskolin-stimulation measure after 5 mins by liquid scintillation counting method; format: functional, cell-based
Adenosine receptor A2a [8] = target: T7, Adenosine receptor A2a; test: Agonist activity at recombinant human A2A receptor expressed in CHO cells assessed as increase in forskolin-induced cAMP level at 1 uM preincubated for 20 mins prior to forskolin-stimulation measure after 5 mins by liquid scintillation counting method; format: functional, cell-based
[9] = target: T2, Adenosine receptor A2b (Homo sapiens); test: Displacement of [3H]PSB-603 from human A2B receptor expressed in CHO cell membrane at 0.3 uM relative to control; format: cell membranes

T7 sequence (P29274 whole entry): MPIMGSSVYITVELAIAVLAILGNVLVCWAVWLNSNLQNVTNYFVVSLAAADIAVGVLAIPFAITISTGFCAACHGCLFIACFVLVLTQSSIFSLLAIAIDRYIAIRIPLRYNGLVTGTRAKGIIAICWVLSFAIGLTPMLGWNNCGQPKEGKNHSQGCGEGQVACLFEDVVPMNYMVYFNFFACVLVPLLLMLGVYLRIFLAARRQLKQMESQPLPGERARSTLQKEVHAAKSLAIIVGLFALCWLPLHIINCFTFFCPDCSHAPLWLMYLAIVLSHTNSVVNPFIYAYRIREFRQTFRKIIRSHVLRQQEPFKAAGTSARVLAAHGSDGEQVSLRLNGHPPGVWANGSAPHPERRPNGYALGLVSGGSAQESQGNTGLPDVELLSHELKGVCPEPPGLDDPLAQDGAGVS

Row | Activity [1] [%] | Activity [2] [%] | Ki (Adenosine receptor A3) [µM] | Activity [3] [%] | Activity [4] [%] | Ki (Adenosine receptor A1) [µM] | Activity [5] | Activity [6] | Activity (Adenosine receptor A2a [7]) | Activity (Adenosine receptor A2a [8]) | Activity [9] [%] | Structure (SMILES)
1 | 37 | 23 | > 10 | 20 | 37 |  |  |  |  |  |  | Cn1c(=O)c2c(nc3n2CCN(c2cccc(Cl)c2)C3)n(C)c1=O
2 |  |  | 14 |  |  | 0.1 | inactive | inactive | inactive | inactive | 1 | Cn1c(=O)c2c(nc3n2CCN([C@@H]2CCCc4ccccc42)C3)n(C)c1=O
